In US20170022258A1, “PEPTIDES FOR USE IN THE TREATMENT OF IL-1 RELATED DISEASES AND CONDITIONS” (C4M PHARMACEUTICALS PTY LTD., priority 2011, published 2017):
Non-standard residues stand in square brackets, D forms with d. Residues, ends and D or L forms follow the SMILES beside them.

Columns and labels:
[1] = tested on: IL-1α+IFN-γ induced IL-17 production by HT-29 cells; assay: IL-1α+IFN-γ induced IL-17 production by HT-29 cells; type: cell-based, human; settings: 10 ng/ml IL-1α+300 U IFN-γ, peptide 10 ng/ml and 500 ng/ml, stimulated control 13.14±3.92, n=6, p<0.001
Method: Human colon epithelial cell lines HT-29 and Caco2 obtained from the European Collection of Animal Cell Cultures (ECACC) were used in cell cultures. Cells were routinely cultured at 37° C. in an atmosphere of 5% CO2 in 80 cm^2 tissue culture flasks in McCoy's and DMEM medium, respectively, supplemented with penicillin (10 u/ml), streptomycin (10 μg/ml), fungizone (0.5 μg/ml), and 10% (v/v) FCS (referred to as complete medium) until confluent.
Confluent monolayers were sub-cultured into 6-well plates for experimental protocols. Cells were grown in 6-well plates until confluent. Twenty-four hours prior to the experiment the confluent monolayers were washed and cultured in FCS-free McCoy's medium. Growth arrested cultures were then treated with fresh FCS-free medium and stimulated with vehicle controls or various doses of IL-1α added alone or in combination with other pro-inflammatory cytokines (TNF-α, IFN-γ) in the presence or absence of the peptide of sequence 4 or IL-1 ra, in a dose and time dependent manner.
Supernatants were collected, centrifuged to remove cellular debris and stored at −70° C. until assayed for extracellular inflammatory mediators. […] Production of soluble mediators was assessed by commercially available ELISA in supernatants, RT-PCR in total RNA extractants and nitric oxide, as described in Kolios, G, et al. (1995). […]

horses = assay: Testing of peptide 4 in horses for treatment of osteoarthritis and equine laminitis; type: in vivo, horse; settings: 1 mg
Method: The peptides were prepared as compositions containing 1 mg of peptide dissolved in 5 ml of solution, comprising water, bicarbonate and either benzyl alcohol or methanol.

[2] = tested on: thoroughbred having equine laminitis; assay: Effect of peptides on equine laminitis (Obel Lameness Grades); type: in vivo, horse
Method: Each of the peptides having the sequences 13, 14, 19 and 4 were also tested to determine their effect on equine laminitis. Each peptide was administered intravenously to a thoroughbred having equine laminitis. The peptides were prepared as compositions containing 1 mg of peptide dissolved in 5 ml of a solution comprising water, bicarbonate and either benzyl alcohol or methanol. The effect of the peptides on equine laminitis was judged by the Obel Lameness Grades, which is a system of rating degrees of lameness resulting from laminitis. […] Obel Grade III horses do resist having a foreleg lifted, and are reluctant to walk. Obel Grade IV horses will walk only if forced. The Obel Score for each of the horses was measured before administration of the peptide and 24 hours after injection of the peptide. […] The effect in reducing laminitis which was caused by one single injection of the peptides on laminitis was short-lived. Therefore, the duration of the effect of the peptides in reducing laminitis was further assessed by attending veterinarians.

[3] = tested on: cancer patients with cachexia; assay: Treatment of cachexia in cancer patients (case reports); type: in vivo, human
Method: Patients are typically diagnosed as having cachexia where weight loss of at least 5% in 12 months or less (or BMI<20 kg/m^2), is accompanied by at least three of the following conditions: • Decreased muscle strength • Fatigue • Low fat-free mass index; and • Abnormal blood biochemistry: increased inflammatory markers (CRP, IL-6), anaemia (Hb<12 g/dL) and low serum albumin (<3.2 g/dL)
The peptide was administered by subcutaneous injection every second day for two weeks, in a composition containing the peptide dissolved in 5 ml of a solution comprising water, bicarbonate and either benzyl alcohol or methanol.
The peptide was administered by subcutaneous injection every second day for one month, in a composition containing the peptide dissolved in 5 ml of a solution comprising water, bicarbonate and either benzyl alcohol or methanol
The peptide was administered by subcutaneous injection every second day, in a composition containing the peptide dissolved in 5 ml of a solution comprising water, bicarbonate and either benzyl alcohol or methanol.
The peptide was administered by subcutaneous injection every second day for two months, in a composition containing the peptide dissolved in 5 ml of a solution comprising water, bicarbonate and either benzyl alcohol or methanol.
The peptide was administered by subcutaneous injection every second day for one week, in a composition containing the peptide dissolved in 5 ml of a solution comprising water, bicarbonate and either benzyl alcohol or methanol.
The peptide was administered by subcutaneous injection every second day for one month, in a composition containing the peptide dissolved in 5 ml of a solution comprising water, bicarbonate and either benzyl alcohol or methanol.
The peptide was administered by subcutaneous injection every second day for one month in a composition containing the peptide dissolved in 5 ml of a solution comprising water, bicarbonate and either benzyl alcohol or methanol.

[4] = Human plasma stability trials; type: in vitro ADME; settings: 37° C., 12 hours, read-out: ½ Life human plasma
Method: 1 mg of each peptide was added to the plasma and the solution was gently agitated for 2 minutes at room temperature before standing at 37° C. for a period of 12 hours.

[5] = Example 16: breast cancer, 1 mg subcutaneous every second day for one month

CC(=O)N[C@H](CC(C)C)C(=O)N1CCC[C@@H]1C(=O)N[C@H](CC(C)C)C(=O)N[C@H](C)C(=O)N[C@H](Cc1ccc(O)cc1)C(=O)N1CCC[C@@H]1C(=O)N[C@H](CCC(N)=O)C(=O)N[C@H](Cc1c[nH]c2ccccc12)C(=O)N[C@H](Cc1ccc(O)cc1)C(=O)NCC(=O)N1CCC[C@@H]1C(=O)N[C@@H](C(=O)N[C@H](Cc1c[nH]c2ccccc12)C(=O)N[C@H](CCC(=O)O)C(=O)N[C@H](Cc1ccccc1)C(=O)O)[C@H](C)O [SEQ ID NO. 4, Ac-LPLAYPQWYGPTWEF] (Ac-[dL][dP][dL][dA][dY][dP][dQ][dW][dY]G[dP][dT][dW][dE][dF]-OH; C-terminus assumed)
IL-1α+IFN-γ-induced IL-17 production [1]: 4.97±0.84 pg/ml per 106 cells | Duration (horses; Laminitis, IV): 72 h | Effect (horses; Laminitis, IV): Pronounced | Duration (horses; OA, Joint): 48 h | Effect (horses; OA, Joint): Moderate | Change in Obel Score ([2]; 1 mg intravenously, before vs 24 hours after injection, most negative = greatest improvement): −2.9 | Duration (days) of effect on laminitis ([2]; single 1 mg intravenous, averaged, report by veterinarians): 4 days | Side effects due to the administration of the peptide ([3]; Example 9: breast cancer, 1 mg subcutaneous every second day for two weeks): No side effects were noted | Symptoms of cachexia ([3]; Example 9: breast cancer, 1 mg subcutaneous every second day for two weeks, after 24 hours): cachexia symptoms were alleviated | Symptoms of cachexia ([3]; Example 10: adrenal adenomas, 1 mg subcutaneous every second day for one month): symptoms of cachexia were alleviated | Symptoms of cachexia ([3]; Example 11: glioblastoma, 1 mg subcutaneous every second day): symptoms of cachexia were alleviated | Symptoms of cachexia ([3]; Example 12: brain adenoma, 1 mg subcutaneous every second day for two months, two days after commencement): symptoms of cachexia were alleviated | Symptoms of cachexia ([3]; Example 13: brain glioma, 1 mg subcutaneous every second day for one week): symptoms of cachexia were alleviated | Symptoms of cachexia ([3]; Example 14: ovarian cancer, 1 mg subcutaneous every second day for one month): symptoms of cachexia were also alleviated | Symptoms of cachexia ([3]; Example 15: bone cancer, 1 mg subcutaneous every second day for one month): symptoms of cachexia were alleviated | Symptoms of cachexia [3, 5]: symptoms of cachexia were also alleviated | Weight put on [3, 5]: 5 kg | Symptoms of cachexia ([3]; Example 17: breast cancer, 1 mg subcutaneous every second day for two weeks): symptoms of cachexia were alleviated | Symptoms of cachexia ([3]; Example 18: bladder cancer, 1 mg subcutaneous every second day for one month, after 24 from commencement): symptoms of cachexia were alleviated | Symptoms of cachexia ([3]; Example 19: colon cancer, 1 mg subcutaneous every second day for one month): symptoms of cachexia were largely alleviated | Symptoms of cachexia ([3]; Example 20: colon cancer, 1 mg subcutaneous every second day for one month, one month after commencement): symptoms of cachexia had been treated | Symptoms of cachexia ([3]; Example 21: glioblastoma, 1 mg subcutaneous every second day for one month, two days after commencement): cachexia started to diminish | Symptoms of cachexia ([3]; Example 22: glioblastoma, 1 mg subcutaneous every second day, after 24 hours): symptoms of cachexia had been alleviated | Symptoms of cachexia ([3]; Example 23: Hodgkin's lymphoma, 1 mg subcutaneous every second day for one month, after three weeks): symptoms of cachexia were alleviated | Weight gained ([3]; Example 24: colon cancer, 1 mg subcutaneous every second day): ~5 kg | Symptoms of cachexia ([3]; Example 24: colon cancer, 1 mg subcutaneous every second day, after two weeks): symptoms of cachexia were alleviated | Symptoms of cachexia ([3]; Example 25: non-Hodgkin's lymphoma, 1 mg subcutaneous every second day, after 4 days): symptoms of cachexia were alleviated | Symptoms of cachexia ([3]; Example 26: pancreatic cancer, 1 mg subcutaneous every second day, after 7 days): symptoms of cachexia were alleviated | Symptoms of cachexia ([3]; Example 27: liposarcoma, 1 mg subcutaneous every second day, after 3 days): symptoms of cachexia were alleviated | Symptoms of cachexia ([3]; Example 28: liver cancer, 1 mg subcutaneous every second day, after one week): symptoms of cachexia were largely alleviated | half-life [4]: 18.1 h
